Data set [1] is described as follows: UV/vis absorption titration, apparent stability constant with Cu^2+. Type of data set: binding. The following applies: ligand 30 μM, DMSO/30 mM HEPES pH 7.4, I = 0.1 (NaNO3) (7/3), 37 °C, 1:1 complex. The procedure:
(§1) All reagents and solvents were purchased at the highest commercial quality and were used without further purification. Anhydrous DMF was obtained by distillation from calcium hydride. All aqueous solutions were prepared using deionized and distilled water. Melting points were measured using a Yanaco MP-J3 Micro Melting Point apparatus and are uncorrected. UV/vis absorption spectra were recorded on a JASCO V-630 spectrophotometer at 37 °C. The UV/vis absorption titrations of 1 with metal ions were carried out by addition of 10 mM solutions of Zn(NO3)2, NiSO4, Co(NO3)2, Fe(NO3)2, and Al(NO3)3 in H2O and 10 mM solutions of Cu(NO3)2 in DMSO. The apparent stability constants of metal–ligand complexes (Ks) were calculated by using the Bind Works 1.0 software provided by CSC (Calorimetry Science Corp.), an interactive PC software for the analysis of Binding Isotherms on Isothermal Titration Calorimeters (ITCs), to which the change in absorption values obtained by the UV/vis absorption titrations are input.[62] IR spectra were measured with a PerkinElmer FT-IR spectrophotometer (Spectrum 100) at room temperature. ^1H (300 and 400 MHz) NMR spectra were recorded on a JEOL Always 300 spectrometer and a JEOL Always 400 spectrometer, respectively. Luminescence imaging studies were performed using a fluorescent microscope (Biorevo, BZ-9000, Keyence). […]

A short description of data set [2]: UV/vis absorption titration, apparent stability constant with Co^2+. Format: binding. The following applies: ligand 30 μM, DMSO/30 mM HEPES pH 7.4 (7/3), 37 °C, approximate, assuming 1:1 complexation (1:2 complex).
Text: (§2) Although simple comparison of the stability of metal complexes is difficult due to the different units for 1:1 complexation (M^–1) and 1:2 complexation (M^–2), it is likely that the thermodynamic stability of Co^2+-(1)2 and Fe^2+-(1)2 complexes are similar to that of Zn^2+-1, Ni^2+-1, and Cu^2+-1 complexes.[40]
as §1, with “The UV/vis absorption titrations of 1 with metal ions were carried out by addition of 10 mM solutions of Zn(NO3)2, NiSO4, Co(NO3)2, Fe(NO3)2, and Al(NO3)3 in H2O and 10 mM solutions of Cu(NO3)2 in DMSO.” left out, “respectively.” for “respectively. Luminescence imaging studies were performed using a fluorescent microscope (Biorevo, BZ-9000, Keyence).”

A short description of data set [3]: UV/vis absorption titration, apparent stability constant with Ni^2+. Type of data set: binding. The following applies: 37 °C, 1:1 complex. The procedure: as §1
A short description of data set [4]: UV/vis absorption titration, apparent stability constant with Zn^2+. The following applies: 37 °C, 1:1 complex. Format: binding. The procedure: as §1
Another data set has as its system Jurkat cells. Briefly: MTT assay of Jurkat cells, effect of metal ions and incubation time on cytotoxicity of ligands. Conditions: Homo sapiens, Jurkat, no metal. Type of data set: cell-based, human. The protocol:
Next, we examined the effect of complexation of 1, 2, BAPTA, and BAPTA-AM with metal ions such as Cu(NO3)2, Zn(NO3)2, FeSO4, Co(NO3)2, and NiSO4 on their cytotoxicity against Jurkat cells. Mixture of ligands and metal ions were incubated for 1 h at 37 °C, and added to Jurkat cells for incubation for 12, 24, and 48 h at [ligand] = 0.78–25 μM and [M^2+] = 1.71–37.5 μM ([ligand]: [M^2+] = 1:1.5). After that, MTT assays were carried out, as shown in Figure S3 of the Supporting Information.
IMR-90 cells in DMEM medium with 10% FBS (1.5 × 10^5 cells/mL) were seeded in to 96 well plates and incubated for 24 h at 37 °C, MTT assays with poly(bpy) ligands and their metal complexes (0–100 μM), cisplatin (0–100 μM), and actinomycin D (0–10 μM) were performed following the same procedure described above. These experiments were carried out at least three times. • (b) MTT assay in the presence of a caspase inhibitor. Jurkat cells were pre-treated with Z-VAD-fmk (15 μM) for 3 h, a general caspases inhibitor, followed by the treatment with 1 (1 μM), BABTA-AM (12.5 μM) and cisplatin (50 μM), respectively, for 24 h, and then MTT assay was carried out as described above. • (c) For evaluation of the effect of metal ions on the cytotoxicity of 1, 2, BAPTA, and BAPTA-AM, these ligands were incubated with metal ions such as Cu(NO3)2, Zn(NO3)2, FeSO4, Co(NO3)2, and NiSO4 for 1 h, respectively, and added to Jurkat cells. The whole mixtures were incubated for 12, 24, and 48 h at [ligand] = 0.78–25 μM and at [M^2+] = 1.71–37.5 μM ([ligand]/[M^2+] = 1:1.5). The MTT assays were conducted as described above.

Data set [5] in a line: UV/vis absorption titration, apparent stability constant with Fe^2+. The following applies: ligand 30 μM, DMSO/30 mM HEPES pH 7.4 (7/3), 37 °C, approximate, assuming 1:1 complexation (1:2 complex). Type of data set: binding.
Text: as §2
as §1, with “The UV/vis absorption titrations of 1 with metal ions were carried out by addition of 10 mM solutions of Zn(NO3)2, NiSO4, Co(NO3)2, Fe(NO3)2, and Al(NO3)3 in H2O and 10 mM solutions of Cu(NO3)2 in DMSO.” left out, “respectively.” for “respectively. Luminescence imaging studies were performed using a fluorescent microscope (Biorevo, BZ-9000, Keyence).”

A short description of data set [6]: UV/vis absorption titration, apparent stability constant with Al^3+. Type of data set: binding. Conditions: ligand 30 μM, DMSO/30 mM HEPES pH 7.4, I = 0.1 (NaNO3) (7/3), 37 °C.
Text: as §2
as §1, with “The UV/vis absorption titrations of 1 with metal ions were carried out by addition of 10 mM solutions of Zn(NO3)2, NiSO4, Co(NO3)2, Fe(NO3)2, and Al(NO3)3 in H2O and 10 mM solutions of Cu(NO3)2 in DMSO.” left out, “respectively.” for “respectively. Luminescence imaging studies were performed using a fluorescent microscope (Biorevo, BZ-9000, Keyence).”

Setting [7] is: ligand 30 μM, DMSO/30 mM HEPES pH 7.4, I = 0.1 (NaNO3) (7/3).

One compound from publication PMC10498496, “Design and Synthesis of Poly(2,2′-Bipyridyl) Ligands for Induction of Cell Death in Cancer Cells: Control of Anticancer Activity by Complexation/Decomplexation with Biorelevant Metal Cations” (Inorganic Chemistry, 2023) can be followed below.

The EC50 is the concentration at which the effect is half-maximal.

Where two headings read alike, the source gives them in different places. Marks after values point to notes of the source that are not given here. Where only a bound is given, the exact number is not on record here.

Consider `c1ccc(-c2ccc(OCc3cc(COc4ccc(-c5ccccn5)nc4)cc(COc4ccc(-c5ccccn5)nc4)c3)cn2)nc1` [compound 1, 1,3,5-Tris(([2,2′-Bipyridin]-5-yloxy)methyl)benzene], for which the “apparent stability constant log Ks with Cu(NO3)2” value in data set [1] is 7.29 ± 0.02 (1:1 complex). In data set [2], the “apparent stability constant log Ks with Co(NO3)2” value is >6 ^b (1:2 complex). Moreover, the Kd in data set [3] (DMSO/30 mM HEPES pH 7.4 (7/3), read-out: dissociation constant Kd (= 1/Ks) of Ni^2+ complex) came to 610 ± 20 nM; in data set [4] (DMSO/30 mM HEPES pH 7.4 (7/3), read-out: dissociation constant Kd (= 1/Ks) of Zn^2+ complex), 280 ± 10 nM. The “apparent stability constant log Ks with NiSO4” value in data set [3] (setting [7]) was 6.21 ± 0.01 (1:1 complex). For the same compound, in data set [4] (setting [7]), the “apparent stability constant log Ks with Zn(NO3)2” value is reported as 6.56 ± 0.02 (1:1 complex). Further, the concentration giving a half-maximal response (EC50) in the data set on Jurkat cells (incubation 12 h (Figure 9), read-out: EC50 against Jurkat cells, metal-free ligand) is around 9000 nM; with Jurkat cells (incubation 24 h (Figure 9b), read-out: EC50 against Jurkat cells, ligand alone), 137 nM; in the data set on Jurkat cells (incubation 48 h (Figure 9, S4), read-out: EC50 against Jurkat cells, metal-free ligand), around 60 nM. In addition, the “apparent stability constant log Ks with Fe(NO3)2” value in data set [5] is on record as >5.5 ^b (1:2 complex). The “apparent stability constant log Ks with Al(NO3)3” value in data set [6] is on record as below 1.
